Source: patent US6770020B2 (priority 2001, dated 2004)
“Also recorded” adds a separate entry of the source.

How the values were obtained:
[1] = system: human glioblastoma cells (TB 10); assay: Gd-DTPA toxicity by cell counting; type: cell-based
Protocol: Two effects that may affect the Gd-DTPA uptake kinetics were examined: compound toxicity and cell density. Three independent series of cell cultures were grown at different densities and exposed for up to 120 hours. Cell counting performed at the end of the incubation time either in control or in Gd-treated cultures gave the same cell number.
In addition, some of the cells exposed to Gd-DTPA for 120 hours were re-plated.

[2] = rats; cited from earlier work
[3] = higher concentrations and prolonged exposure; cited from earlier work
[4] = cited from earlier work
LD50 in rats = type: in vivo; details: 70 kg human, assuming a similar LD50 in man
[5] = system: human glioblastoma cells (TB 10); assay: ICP-MS Gd uptake by glioblastoma cell cultures exposed to Gd-DTPA; details: for cellular Gd concentration: 10 mg/ml Gd-DTPA
[6] = system: human glioblastoma cells (TB 10); assay: TOF-SIMS analysis of Gd in individual cells; type: cell-based
Text: Time of Flight Secondary Ion Mass-Spectrometry (TOF-SIMS), another technique for microchemical analysis^(22) was utilized to validate data from MEPHISTO spectromicroscopy, in addition to the ICP-MS data. Cell samples were bombarded with either 15 or 25 keV Ga^+ ions, focused in a microscopic beam, which induced desorption of the surface atoms. The emitted ions were then accelerated, and detected by a high resolution mass spectrometer. By scanning the microscopic Ga ion beam, TOF-SIMS produced images of the cell surface, and distribution maps of specific element isotopes, with a spatial resolution of […]. High resolution mass spectra were obtained from microscopic areas, selected as the region of interest in the cell images, to allow quantitative comparison of Gd concentration in sub-cellular regions.
The results obtained in MEPHISTO were corroborated by the TOF-SIMS) data, an independent technique to evaluate elemental distributions at a microscopic scale. Two cells were studied from one of the etched 72-hour exposure samples used in the MEPHISTO experiment. Note in the table that the concentration of Gd is consistently higher in nuclei than in cytoplasm.
TOF-SIMS analysis of a non-etched cell at the nucleus position (also Gd-exposed for 72 hours), was performed before and after strong sputtering to probe the Gd concentration on the membrane and inside the nucleus. The total Gd ion yield, calculated as for the first column of Table 2, gave 0.055 cts/s on the unsputtered sample.
After 30 second sputtering (with 25 keV Ga˜ ions) to remove surface contamination, the total Gd ion yield from the cell membrane was 0.182 cts/s. After 16 minute sputtering to penetrate about […] into the nucleus, the total Gd ion yield was 1.844 cts/s.

[7] = Cell 1, Cytoplasm, 72 hours exposure
[8] = Cell 1, Nucleus, 72 hours exposure
[9] = Cell 2, Cytoplasm, 72 hours exposure
[10] = Cell 2, Nucleus, 72 hours exposure

## O=C([O-])CN(CCN(CC(=O)[O-])CC(=O)O)CCN(CC(=O)[O-])CC(=O)O.[Gd+3] [Gd-DTPA, gadolinium diethylene triamine pentaacetic acid]
[1]; cells exposed 120 hours, re-plated, after one week
  growth and morphology after re-plating: grew normally
[1]; different concentrations of Gd-DTPA, 72 hours
  cytotoxic or cytostatic effect (cell counting vs. unexposed controls): not cytotoxic or cytostatic
[1]; exposed for up to 120 hours
  cytotoxic or cytostatic effect (cell counting vs. control): did not show any cytotoxic or cytostatic effect; also recorded: no toxic effects; also recorded: no effect on cell survival
[2]
  LD50: 20 mmol/kg
[3]
  intravascular hemolysis: weak, reversible intravascular hemolysis
[4]; 6 hours post-injection in man, average
  dose eliminated renally: about 83%
[4]; 5 days post-injection in man
  dose found in the urine: approximately 91%
[4]; humans
  dose dependence of pharmacokinetics: independent of the dose
[4]; in vivo
  half life in the blood: around 30 minutes
LD50 in rats
  amount injected for a 50% chance of killing: more than 850 g
[5]; 120-hour exposure (maximum)
  cellular Gd concentration: 600 µg/mL
[5]; after 24 hours
  cellular Gd concentration: more than 250 μg/ml
[5]; 10 mg/ml, up to 120 hours, FIG. 1
  cellular Gd concentration vs. exposure time: increases with the exposure time
[5]; 1 to 25 mg/ml Gd-DTPA, 72 hours, FIG. 3
  concentration of uptaken Gd vs. exposure concentration: increases with the exposure concentration
[5]; 120-hour exposure
  maximum cellular concentration relative to the 250 μg/ml recommended for GdNCT: 2.4 times
[6]; Cell 1, 72 hours exposure
  Ratio nucleus:cytoplasm, ^155Gd: 2.51
  Ratio nucleus:cytoplasm, ^155GdO: 2.52
  Ratio nucleus:cytoplasm, ^156Gd: 1.89
  Ratio nucleus:cytoplasm, ^156GdO: 2.03
  Ratio nucleus:cytoplasm, ^157GdO: 2.06
  Ratio nucleus:cytoplasm, ^158Gd: 1.53
  Ratio nucleus:cytoplasm, ^160Gd: 1.99
  Ratio nucleus:cytoplasm, ^160GdO: 2.00
  Ratio nucleus:cytoplasm, total Gd ion yield: 2.02
[6]; [7]
  Detection Rate, ^155Gd: 0.41 Counts/s
  Detection Rate, ^155GdO: 0.63 Counts/s
  Detection Rate, ^156Gd: 0.91 Counts/s
  Detection Rate, ^156GdO: 0.91 Counts/s
  Detection Rate, ^157GdO: 2.08 Counts/s
  Detection Rate, ^158Gd: 0.89 Counts/s
  Detection Rate, ^160Gd: 0.68 Counts/s
  Detection Rate, ^160GdO: 0.94 Counts/s
  Detection Rate, total Gd ion yield: 6.44 Counts/s
[6]; [8]
  Detection Rate, ^155Gd: 1.03 Counts/s
  Detection Rate, ^155GdO: 1.59 Counts/s
  Detection Rate, ^156Gd: 1.72 Counts/s
  Detection Rate, ^156GdO: 1.85 Counts/s
  Detection Rate, ^157GdO: 2.23 Counts/s
  Detection Rate, ^158Gd: 1.36 Counts/s
  Detection Rate, ^160Gd: 1.35 Counts/s
  Detection Rate, ^160GdO: 1.88 Counts/s
  Detection Rate, total Gd ion yield: 12.98 Counts/s
[6]; Cell 2, 72 hours exposure
  Ratio nucleus:cytoplasm, ^155Gd: 1.60
  Ratio nucleus:cytoplasm, ^155GdO: 1.34
  Ratio nucleus:cytoplasm, ^156Gd: 1.86
  Ratio nucleus:cytoplasm, ^156GdO: 1.41
  Ratio nucleus:cytoplasm, ^157GdO: 1.56
  Ratio nucleus:cytoplasm, ^158Gd: 1.84
  Ratio nucleus:cytoplasm, ^160Gd: 1.63
  Ratio nucleus:cytoplasm, ^160GdO: 1.72
  Ratio nucleus:cytoplasm, total Gd ion yield: 1.60
[6]; [9]
  Detection Rate, ^155Gd: 0.23 Counts/s
  Detection Rate, ^155GdO: 0.38 Counts/s
  Detection Rate, ^156Gd: 0.37 Counts/s
  Detection Rate, ^156GdO: 0.51 Counts/s
  Detection Rate, ^157GdO: 0.57 Counts/s
  Detection Rate, ^158Gd: 0.32 Counts/s
  Detection Rate, ^160Gd: 0.33 Counts/s
  Detection Rate, ^160GdO: 0.5 Counts/s
  Detection Rate, total Gd ion yield: 3.21 Counts/s
[6]; [10]
  Detection Rate, ^155Gd: 0.37 Counts/s
  Detection Rate, ^155GdO: 0.51 Counts/s
  Detection Rate, ^156Gd: 0.69 Counts/s
  Detection Rate, ^156GdO: 0.72 Counts/s
  Detection Rate, ^157GdO: 0.89 Counts/s
  Detection Rate, ^158Gd: 0.59 Counts/s
  Detection Rate, ^160Gd: 0.54 Counts/s
  Detection Rate, ^160GdO: 0.86 Counts/s
  Detection Rate, total Gd ion yield: 5.13 Counts/s
[6]; non-etched cell at the nucleus position, 72 hours exposure, unsputtered sample
  total Gd ion yield: 0.055 cts/s
[6]; non-etched cell, 72 hours exposure, after 30 second sputtering
  total Gd ion yield from the cell membrane: 0.182 cts/s
[6]; non-etched cell, 72 hours exposure, after 16 minute sputtering to penetrate about 1 pm into the nucleus
  total Gd ion yield: 1.844 cts/s
